Patent US10130615B2, “Benzomorphan analogs and the use thereof” (priority 2014, dated 2018)
Where two headings read alike, the source gives them in different places.

Legend:
μ-opioid receptor [1] = target: T1, μ-opioid receptor (Homo sapiens, UniProt P35372); experiment: biochemical; parameters: purchased Perkin Elmer, Shelton, Conn; host or cells: HEK-293 or CHO; details: HEK-293 or CHO cells; for Emax: relative to DAMGO, read-out: GTPγS μ Emax; for EC50: read-out: GTPγS μ EC50
κ-opioid receptor = κ-opioid receptor (Homo sapiens, UniProt P41145); experiment: κ-opioid receptor GTPγS functional assay, U2OS cells; assay type: biochemical; parameters: expressed in transfected cells; host or cells: U-2 OS
Chain of κ-opioid receptor (P41145 whole entry): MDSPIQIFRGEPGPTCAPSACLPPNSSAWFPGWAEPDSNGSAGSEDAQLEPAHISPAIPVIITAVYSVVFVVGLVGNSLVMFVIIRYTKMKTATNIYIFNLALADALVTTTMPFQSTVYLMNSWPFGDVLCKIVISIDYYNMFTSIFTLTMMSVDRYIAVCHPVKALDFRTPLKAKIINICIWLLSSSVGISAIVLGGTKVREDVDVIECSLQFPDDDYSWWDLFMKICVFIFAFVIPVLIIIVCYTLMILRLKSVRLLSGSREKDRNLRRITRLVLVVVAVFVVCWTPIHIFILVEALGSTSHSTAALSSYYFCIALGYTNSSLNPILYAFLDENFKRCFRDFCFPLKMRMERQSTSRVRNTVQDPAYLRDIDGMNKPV
Description: Plates were incubated for 30 min at a temperature of about 25° C. with shaking.

μ-opioid receptor [2] = target: T1, μ-opioid receptor; experiment: μ-opioid receptor GTPγS functional assay, U2OS cells; details: for Emax: read-out: GTPγS μ Emax
[3] = U2OS cells, read-out: GTPγS κ EC50

T1 sequence (P35372 whole entry, species assumed): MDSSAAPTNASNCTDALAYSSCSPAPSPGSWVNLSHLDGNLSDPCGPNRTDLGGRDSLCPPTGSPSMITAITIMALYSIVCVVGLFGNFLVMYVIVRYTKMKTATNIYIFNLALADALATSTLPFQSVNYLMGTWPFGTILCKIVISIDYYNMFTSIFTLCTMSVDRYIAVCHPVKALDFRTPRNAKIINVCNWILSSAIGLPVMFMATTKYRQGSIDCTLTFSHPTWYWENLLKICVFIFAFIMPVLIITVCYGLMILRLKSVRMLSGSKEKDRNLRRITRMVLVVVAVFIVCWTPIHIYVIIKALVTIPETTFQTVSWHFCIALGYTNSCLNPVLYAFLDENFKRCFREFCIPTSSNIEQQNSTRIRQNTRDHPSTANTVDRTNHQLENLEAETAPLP

| SMILES | Emax (μ-opioid receptor [1]) [%] | EC50 (μ-opioid receptor [1]) [nM] | also measured |
| --- | --- | --- | --- |
| C[C@H]1[C@H]2Cc3ccc(O)cc3[C@]1(CCNCc1ccco1)CCN2CC1CC1 [Compound 17, (2R,6R,11R)-3-(cyclopropylmethyl)-6-(2-((furan-2-ylmethyl)amino)ethyl)-11-methyl-1,2,3,4,5,6-hexahydro-2,6-methanobenzo[d]azocin-8-ol] | -0.88 ± 0.94 |  |  |
| COc1ccc2c(c1)[C@]1(CCN(C)CCCN(C)C)CCN(C)[C@H](C2)[C@@H]1C [Compound 54] |  |  | Emax (κ-opioid receptor; U2OS cells): 125 ± 1.53%; EC50 (κ-opioid receptor; [3]): 9860 ± 349 nM; EC50 (μ-opioid receptor [2]): 18700 ± 1890 nM; Emax (μ-opioid receptor [2]): 95 ± 2.65% |
| COc1ccc2c(c1)[C@]1(CCN3CCC(N(C4CC4)S(=O)(=O)c4ccc(Cl)cc4)CC3)CCN(C)[C@H](C2)[C@@H]1C [Compound 53, 4-chloro-N-cyclopropyl-N-(1-(2-((2R,6R,11R)-8-methoxy-3,11-dimethyl-2,3,4,5-tetrahydro-2,6-methanobenzo-[d]azocin-6(1H)-yl)ethyl)piperidin-4-yl)-benzenesulfonamide] |  |  | Emax (κ-opioid receptor; U2OS cells): 13.3 ± 2.19%; EC50 (κ-opioid receptor; [3]): 7000 ± 3060 nM; EC50 (μ-opioid receptor [2]): 1250 ± 85.4 nM; Emax (μ-opioid receptor [2]): 63.3 ± 2.03% |
| C[C@H]1[C@H]2Cc3ccc(O)cc3[C@]1(CCNC(=O)NC(c1ccccc1)c1ccccc1)CCN2C [Compound 73, 1-Benzhydryl-3-(2-((2R,6R,11R)-8-hydroxy-3,11-dimethyl-2,3,4,5-tetrahydro-2,6-methanobenzo[d]azocin-6(1H)-yl)ethyl)urea] | 69.4 ± 1.22 | 3.64 ± 0.88 |  |
| COc1ccc2c(c1)[C@]1(CCO)CCN(C)[C@H](C2)[C@@H]1C [Compound 50, 2-((2R,6S,11R)-8-methoxy-3,11-dimethyl-2,3,4,5-tetrahydro-2,6-methano-benzo[d]azocin-6(1H)-yl)ethan-1-ol] |  |  | EC50 (κ-opioid receptor): > 2320 nM; Emax (κ-opioid receptor; U2OS cells): 103 ± 8.41%; EC50 (μ-opioid receptor [2]): 2390 ± 271 nM; Emax (μ-opioid receptor [2]): 88.3 ± 7.62% |
| COc1ccc2c(c1)[C@]1(CCNCCCn3ccnc3)CCN(C)[C@H](C2)[C@@H]1C [Compound 55, 3-(1H-imidazol-1-yl)-N-(2-((2R,6R,11R)-8-methoxy-3,11-dimethyl-2,3,4,5-tetrahydro-2,6-methanobenzo[d]azocin-6(1H)-yl)ethyl)propan-1-amine] |  |  | Emax (κ-opioid receptor; U2OS cells): 113 ± 1.45%; EC50 (κ-opioid receptor; [3]): 14700 ± 1240 nM; EC50 (μ-opioid receptor [2]): 14500 ± 653 nM; Emax (μ-opioid receptor [2]): 82 ± 2.65% |
| C[C@@H]1[C@@H]2Cc3ccc(O)cc3[C@@]1(CCN1CCN(C(c3ccc(F)cc3)c3ccc(F)cc3)CC1)CCN2C [Compound 15, (2S,6S,11S)-6-(2-(4-(bis(4-fluoro-phenyl)methyl)piperazin-1-yl)ethyl)-3,11-dimethyl-1,2,3,4,5,6-hexahydro-2,6-methanobenzo[d]azocin-8-ol] | 97.7 ± 1.76 | 3460 ± 314 |  |
| COc1ccc2c(c1)[C@]1(CCNC(=O)[C@@H]3CCC(=O)N3)CCN(C)[C@H](C2)[C@@H]1C [Compound 84, (S)-N-(2-((2R,6R,11R)-8-methoxy-3,11-dimethyl-2,3,4,5-tetrahydro-2,6-methano-benzo[d]azocin-6(1H)-yl)ethyl)-5-oxopyrrolidine-2-carboxamide] | 32.4 ± 0.76 | 12400 ± 540 |  |
| C[C@H]1[C@H]2Cc3ccc(O)cc3[C@]1(CCN(C)C)CCN2C [Compound 22, (2R,6R,11R)-6-(2-(dimethyl-amino)-ethyl)-3,11-dimethyl-1,2,3,4,5,6-hexahydro-2,6-methanobenzo[d]azocin-8-ol] | 37.3 ± 1 | 1070 ± 143 |  |
| C[C@H]1[C@H]2Cc3ccc(O)cc3[C@]1(CCNC(=O)Nc1cccc(Oc3ccccc3)c1)CCN2C [Compound 74, 1-(2-((2R,6R,11R)-8-hydroxy-3,11-dimethyl-2,3,4,5-tetrahydro-2,6-methanobenzo[d]azocin-6(1H)-yl)ethyl)-3-(3-phenoxyphenyl)urea] | 52.1 ± 1.88 | 18.4 ± 2.09 |  |
| C[C@H]1[C@H]2Cc3ccc(O)cc3[C@]1(CCNC(=O)[C@@H]1CCCC(=O)N1)CCN2CC1CC1 [Compound 82, (S)-N-(2-((2R,6R,11R)-3-(cyclopropyl-methyl)-8-hydroxy-11-methyl-2,3,4,5-tetrahydro-2,6-methanobenzo[d]azocin-6(1H)-yl)ethyl)-6-oxopiperidine-2-carboxamide] | 8.9 ± 0.9 | 19.6 ± 9.39 |  |
| COc1ccc2c(c1)[C@]1(CCNCCc3ccc(S(N)(=O)=O)cc3)CCN(C)[C@H](C2)[C@@H]1C [Compound 51, 4-(2-((2-((2R,6R,11R)-8-methoxy-3,11-dimethyl-2,3,4,5-tetrahydro-2,6-methanobenzo[d]azocin-6(1H)-yl)ethyl)-amino)ethyl)benzenesulfonamide] |  |  | Emax (κ-opioid receptor; U2OS cells): 96.3 ± 0.67%; EC50 (κ-opioid receptor; [3]): 6280 ± 318 nM; EC50 (μ-opioid receptor [2]): 6710 ± 257 nM; Emax (μ-opioid receptor [2]): 76.7 ± 3.71% |
| C[C@H]1[C@H]2Cc3ccc(O)cc3[C@]1(CCNCc1ccc(F)cc1)CCN2CC1CC1 [Compound 16, (2R,6R,11R)-3-(cyclopropylmethyl)-6-(2-((4-fluorobenzyl)amino)ethyl)-11-methyl-1,2,3,4,5,6-hexahydro-2,6-methanobenzo[d]azocin-8-ol] | 10.8 ± 1.25 | 3.04 ± 0.26 |  |
| COc1ccc2c(c1)[C@@]1(CCN[C@H](C(=O)O)C(C)C)CCN(CC3CC3)[C@@H](C2)[C@H]1C [Compound 41, (2-((2S,6S,11S)-3-(cyclopropylmethyl)-8-methoxy-11-methyl-2,3,4,5-tetrahydro-2,6-methanobenzo[d]azocin-6(1H)-yl)ethyl)-L-valine] | 0 |  |  |
| C[C@H]1[C@H]2Cc3ccc(O)cc3[C@]1(CCNC(=O)NS(=O)(=O)c1ccccc1)CCN2C [Compound 75, N-((2-((2R,6R,11R)-8-hydroxy-3,11-dimethyl-2,3,4,5-tetrahydro-2,6-methanobenzo[d]azocin-6(1H)-yl)-ethyl)carbamoyl)benzenesulfonamide] | 24.7 ± 0.17 | 314 ± 30.2 |  |
| C[C@@H]1[C@@H]2Cc3ccc(O)cc3[C@@]1(CCN1CCC(N(C3CC3)S(=O)(=O)c3ccccc3)CC1)CCN2C [Compound 14, N-cyclopropyl-N-(1-(2-((2S,6S,11S)-8-hydroxy-3,11-dimethyl-2,3,4,5-tetrahydro-2,6-methanobenzo[d]azocin-6(1H)-yl)ethyl)piperidin-4-yl)-benzenesulfonamide] | 69 ± 0.58 | 11900 ± 1220 |  |
| C[C@H]1[C@H]2Cc3ccc(O)cc3C1(CCNS(=O)(=O)N(C)C)CCN2CC1CC1 [Compound 9] |  |  | EC50 (μ-opioid receptor [2]): 0.67 ± 0.01 nM; Emax (μ-opioid receptor [2]): 27% |
| COc1ccc2c(c1)[C@@]1(CCNCC(=O)O)CCN(CC3CC3)[C@@H](C2)[C@H]1C [Compound 39, (2-((2S,6S,11S)-3-(cyclopropylmethyl)-8-methoxy-11-methyl-2,3,4,5-tetrahydro-2,6-methanobenzo[d]azocin-6(1H)-yl)ethyl)glycine] | 19.7 ± 3.18 |  |  |
| C[C@H]1[C@H]2Cc3ccc(O)cc3[C@]1(CCNC(=O)NS(=O)(=O)c1ccc(F)cc1)CCN2CC1CC1 [Compound 19, N-((2-((2R,6R,11R)-3-(cyclopropyl-methyl)-8-hydroxy-11-methyl-2,3,4,5-tetrahydro-2,6-methanobenzo[d]azocin-6(1H)-yl)ethyl)carbamoyl)-4-fluoro-benzenesulfonamide] | 10.1 ± 0.98 | 17.3 ± 6.99 |  |
| COc1ccc2c(c1)[C@]1(CCNC(=O)NS(=O)(=O)c3ccc(F)cc3)CCN(C)[C@H](C2)[C@@H]1C [Compound 67, 4-fluoro-N-((2-((2R,6R,11R)-8-methoxy-3,11-dimethyl-2,3,4,5-tetrahydro-2,6-methanobenzo[d]azocin-6(1H)-yl)ethyl)-carbamoyl)benzene-sulfonamide] | 26.3 ± 3.38 | 2450 ± 692 |  |
| COc1ccc2c(c1)[C@@]1(CCNC3(C(=O)O)CC3)CCN(CC3CC3)[C@@H](C2)[C@H]1C [Compound 35, 1-((2-((2S,6S,11S)-3-(cyclopropyl-methyl)-8-methoxy-11-methyl-2,3,4,5-tetrahydro-2,6-methanobenzo[d]azocin-6(1H)-yl)ethyl)amino)cyclopropane-1-carboxylic acid] | 13 ± 1.53 | 17500 ± 6780 |  |
| C[C@H]1[C@H]2Cc3ccc(O)cc3[C@]1(CCNC(=O)[C@@H]1CCC(=O)N1)CCN2CC1CC1 [Compound 81, (S)-N-(2-((2R,6R,11R)-3-(cyclopropyl-methyl)-8-hydroxy-11-methyl-2,3,4,5-tetrahydro-2,6-methanobenzo[d]azocin-6(1H)-yl)ethyl)-5-oxopyrrolidine-2-carboxamide] | 10.8 ± 0.96 | 18.1 ± 4.15 |  |
| C[C@H]1[C@H]2Cc3ccc(O)cc3[C@]1(CCNC(=O)[C@@H]1CCCN1)CCN2C [Compound 71, (S)-N-(2-((2R,6R,11R)-8-hydroxy-3,11-dimethyl-2,3,4,5-tetrahydro-2,6-methano-benzo[d]azocin-6(1H)-yl)ethyl)-pyrrolidine-2-carboxamide] | 36 ± 0.58 | 1580 ± 177 |  |
| C[C@H]1[C@H]2Cc3ccc(O)cc3[C@]1(CCNC(=O)[C@@H]1CCCCN1)CCN2C [Compound 70, (S)-N-(2-((2R,6R,11R)-8-hydroxy-3,11-dimethyl-2,3,4,5-tetrahydro-2,6-methano-benzo[d]azocin-6(1H)-yl)ethyl)-piperidine-2-carboxamide] | 27.7 ± 0.88 | 783 ± 208 |  |
| C[C@H]1[C@H]2Cc3ccc(O)cc3[C@]1(CCNC(=O)NCC(c1ccccc1)c1ccccc1)CCN2C [Compound 77, 1-(2,2-diphenylethyl)-3-(2-((2R,6R,11R)-8-hydroxy-3,11-dimethyl-2,3,4,5-tetrahydro-2,6-methanobenzo[d]azocin-6(1H)-yl)ethyl)urea] | 57.1 ± 2.33 | 4.61 ± 0.75 |  |
| C[C@H]1[C@H]2Cc3ccc(O)cc3[C@]1(CCN1CCCC1)CCN2C [Compound 20, (2R,6R,11R)-3,11-dimethyl-6-(2-(pyrrolidin-1-yl)ethyl)-1,2,3,4,5,6-hexahydro-2,6-methanobenzo[d]azocin-8-ol] | 108 ± 10.1 |  |  |
